Test [1] deals with T1, recombinant human VE-cadherin FC fusion protein (Homo sapiens, UniProt P33151).
T1 construct: purchased R&D Systems, Minneapolis
Description: ELISA: binding of FLAG-tagged peptide to coated VE-cadherin. Conditions: VE-cadherin coated 8 nM/ml. From the text: We have developed a modified ELISA working with the same principles described by others, but the purpose of the herein described ELISA is not to quantify fibrin degradation products, but to search for proteins, peptides or compounds which interfere with the binding of the Bbeta15-42 sequence and the VE-cadherin. […] Into this system one can introduce any other additional substance and measure if this substance inhibits VE-cadherin/Bbeta15-42 binding.
In detail, 96 well protein immobilizer plates (Exiqon, Vedbaek, DK) were coated with recombinant human VE-cadherin FC fusion protein (8 nM/ml; R&D Systems, Minneapolis) in PBS and were left overnight at 4° C. Plates were then washed and incubated with peptide Bβ15-42 ([…]) tagged with a FLAG-sequence (DYKDDDDK) at the C-terminus of the peptide or with a FLAG-tagged random peptide ([…]) at a concentration of 0-80 μMol/ml. After washing, bound FLAG-tagged peptide was detected by incubation with a peroxidase-labelled anti-FLAG antibody (Sigma, St. Louis, USA) and chromogenic substrate. Optical density was determined by an ELISA plate reader set at a wavelength of 450 nm. Data represent the mean of three independent experiments, each performed in triplicates.

The subject of test [2] is human umbilical vein endothelial cells (HUVEC). Briefly: Inhibition of the release of interleukin-6 from endothelial cells. Format: cell-based. Conditions: 4 hrs. On the procedure: In addition we have identified a specific assay for the determination of the claimed activity of the peptides, which consists of measurement of the inhibition of the release of interleukin-6 from endothelial cells. […] This assay is therefore also part of the invention.
96-well cell culture plates were coated with 1% gelatine. Into each well, approx. 23,000 human umbilical vein endothelial cells (HUVEC) in 200 μl of medium were pipetted. The HUVECs were taken from passage 4 form a pool of four different donors. The medium used for dilution was standard medium with 10% FCS, ECGS in Iscove's modified Dulbecco medium (Petzelbauer et al., J Immunol. 151:5062-5072, 1993). Within approx. 18 hrs at 37° C. in an incubator, a confluent cell monolayer is formed. The supernatant was removed and replaced with medium containing either NDSK-II alone or NDSK-II plus peptide Bβ15Δ([…]).
The total final volume was 200 μl. After 4 hrs of incubation at 37° C. under 5% CO2, the cell culture supernatant was again removed and centrifuged for 10 min at 4° C. at 3000 U/min. The concentration of interleukin-6 (IL-6) was measured using a commercial assay (IL-6 Quantikine Immonuassay (R&D Sytems; Catalog#: D6050; Lot: 231361). Calibration was done according to the standard protocol supplied by the assay manufacturer with various dilutions of recombinant IL-6 and medium. Readings of the optical density were taken at a wavelength of 450 nm with a reference wavelength of 550 nm.

For test [3] the following is noted: in vivo, ischemia/reperfusion; WO 02/48180; cited from earlier work.
Test [4] relates to Domestic male landrace pigs. Briefly: Hemorrhagic shock in domestic pigs. The class given is in vivo, pig. On the procedure:
Domestic male landrace pigs weighing 20-35 kg were fed a standard diet and received water ad libitum. All procedures were performed in concurrence with the AAALAC guidelines and according to the Guide for the Care of Laboratory Animals (Department of Health and Human Services, National Institutes of Health, Publication Nr. 86-23). Pigs were premedicated with azaperon (4 mg/kg). The ear vein was cannulated and the anesthetic propofol was applied. The animals were fully instrumented and equlibrated for 1 hr in order to recieve a stable baseline. Subsequently, the animals (n=16) were exsanguinated until a mean arterial pressure of 40 mm Hg was achieved. They were kept at this level constituting a hemorrhagic shock for 1 hr. After this time the lost blood volume was resubstituted with shed blood and salt solutions (cristalloids). In addition the animals received a bolus dose of the peptide Bβ15-42 (n=8) or a random sequence peptide (n=8) in a dose of […] each as a single intravenous bolus. During the ensuing reperfusion period over the duration of 5 hrs, Horrowitz index (measuring blood oxigenation), PEEP (positive end-expiratory pressure in mm Hg) and cardiac ejection volume were determined at various timepoints.
In the following tables the following timepoints were used:
• Timepoint 1: 1 hr before hemorrhagic shock • Timepoint 2: during hemorrhagic shock • Timepoint 3: 1 hr after the start of reperfusion • Timepoint 4: 3 hrs after the start of reperfusion • Timepoint 5: 5 hrs after the start of reperfusion

Setting [5] is: Timepoint 1: 1 hr before hemorrhagic shock (before dosing).
Setting [6] is: Timepoint 2: during hemorrhagic shock (before dosing).
The mark [7] stands for this setting: Timepoint 3: 1 hr after the start of reperfusion, 2.4 mh/kg single intravenous bolus.
Setting [8] is: Timepoint 4: 3 hrs after the start of reperfusion, 2.4 mh/kg single intravenous bolus.
[9] abbreviates: Timepoint 5: 5 hrs after the start of reperfusion, 2.4 mh/kg single intravenous bolus.

T1 sequence (P33151 with tags, fused parts or gaps limits assumed): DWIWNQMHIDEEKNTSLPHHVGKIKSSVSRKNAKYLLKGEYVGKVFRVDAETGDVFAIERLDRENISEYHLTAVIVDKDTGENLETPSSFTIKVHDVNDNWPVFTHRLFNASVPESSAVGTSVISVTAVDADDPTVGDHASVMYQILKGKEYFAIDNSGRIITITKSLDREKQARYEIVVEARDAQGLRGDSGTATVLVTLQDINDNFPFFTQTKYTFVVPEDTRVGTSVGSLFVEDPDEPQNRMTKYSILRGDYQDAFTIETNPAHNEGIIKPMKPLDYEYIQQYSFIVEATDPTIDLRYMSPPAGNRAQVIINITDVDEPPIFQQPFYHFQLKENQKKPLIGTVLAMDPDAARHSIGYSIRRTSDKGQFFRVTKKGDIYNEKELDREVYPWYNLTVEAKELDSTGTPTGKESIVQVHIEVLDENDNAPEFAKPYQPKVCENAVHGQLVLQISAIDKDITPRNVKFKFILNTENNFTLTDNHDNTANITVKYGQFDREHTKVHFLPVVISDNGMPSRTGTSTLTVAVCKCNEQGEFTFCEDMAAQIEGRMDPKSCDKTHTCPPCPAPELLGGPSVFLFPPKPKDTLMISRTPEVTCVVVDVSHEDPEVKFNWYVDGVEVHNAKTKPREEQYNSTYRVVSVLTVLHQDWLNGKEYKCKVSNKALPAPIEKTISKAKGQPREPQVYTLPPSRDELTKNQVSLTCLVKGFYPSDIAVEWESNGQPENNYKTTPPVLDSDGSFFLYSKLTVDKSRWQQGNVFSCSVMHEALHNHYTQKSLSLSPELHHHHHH

In the case of “15-42 FLAG: peptide Bβ15-42 (GHRPLDKKREEAPSLRPAPPPISGGGYR) tagged with a FLAG-sequence (DYKDDDDK) at the C-terminus (GHRPLDKKREEAPSLRPAPPPISGGGYRDYKDDDDK)”, the “binding to VE-cadherin, optical density (450 nm), mean” value in test [1] (FLAG-tagged peptide 0.23 μM/ml) came out at 0.01; in test [1] (FLAG-tagged peptide 0.7 μM/ml) it was 0.02; in test [1] (FLAG-tagged peptide 2.3 μM/ml) it was 0.08; in test [1] (FLAG-tagged peptide 7 μM/ml) it was 0.33; in test [1] (FLAG-tagged peptide 14 μM/ml), 0.92; in test [1] (FLAG-tagged peptide 21 μM/ml) it was 1.3. In addition, the results for the “binding to VE-cadherin, optical density (450 nm), mean” value in test [1] (FLAG-tagged peptide 35 μM/ml), in test [1] (FLAG-tagged peptide 46 μM/ml) and in test [1] (FLAG-tagged peptide 70 μM/ml) were 1.5, 1.93 and 2.1, respectively.
Turning to “GHRPLDKKREEAPSLRPAPPPISGGGYR [peptide Bβ15-42, peptide matching amino acids 15-42 of the Bβ chain of human fibrin]”, the figures for the IL-6 concentration in test [2] (0.3 μg/ml NDSK-II + 10 μg/ml peptide), in test [2] (3 μg/ml NDSK-II + 10 μg/ml peptide) and in test [2] (30 μg/ml NDSK-II + 10 μg/ml peptide) were 15 ± 2 pg/mL, 12 ± 3(p < 0.05 cmpd with pg/ml and 13 ± 1(p < 0.05 cmpd with pg/ml, respectively. Also, in test [3], the “myocardial infarct size (in words)” value is reported as “reduces myocardial infarct sizes”. Moreover, the “EV (cardiac ejection volume)” value in test [4] (setting [5]) came to 44 ± 2 mL; in test [4] (setting [6]) it was 6 ± 1 mL; in test [4] (setting [7]) it was 31 ± 4 mL; in test [4] (setting [8]) it was 32 ± 3 mL; in test [4] (setting [9]) it was 37 ± 4 mL. The “Horrowitz Index (blood oxigenation)” value in test [4] (setting [5]) is on record as 465 +/− 20; in test [4] (setting [6]) it was 450 +/− 20; in test [4] (setting [7]), 420 +/− 10; in test [4] (setting [8]), 410 +/− 20; in test [4] (setting [9]), 420 +/− 30. Also, the “PEEP (positive end-expiratory pressure)” value in test [4] (setting [5]) is 4 +/− 0.1 mmHg; in test [4] (setting [6]) it was 4 +/− 0.1 mmHg; in test [4] (setting [7]), 4.1 +/− 0.2 mmHg; in test [4] (setting [8]) it was 4.2 +/− 0.3 mmHg; in test [4] (setting [9]), 4.3 +/− 0.2 mmHg.

The record behind these values is US7897574B2, “Pharmaceutical composition for treating haemorrhagic shock and its consecutive symptoms” (Ikaria Development Subsidiary Two LLC, priority 2005, dated 2011).
